Reference: EP4682141A1, “TRICYCLIC COMPOUND” (ONO Pharmaceutical Co., Ltd., priority 2023, dated 2024)

Assays:
EP1 = biological target: T1, EP1 (Homo sapiens, UniProt P34995); experiment: agonist activity on human EP1 receptor (intracellular calcium concentration, EP1-CHO cells); assay type: cell-based
T1 construct: expressed in transfected cells; host or cells: CHO (EP1-CHO)
T1 sequence (P34995 1-402): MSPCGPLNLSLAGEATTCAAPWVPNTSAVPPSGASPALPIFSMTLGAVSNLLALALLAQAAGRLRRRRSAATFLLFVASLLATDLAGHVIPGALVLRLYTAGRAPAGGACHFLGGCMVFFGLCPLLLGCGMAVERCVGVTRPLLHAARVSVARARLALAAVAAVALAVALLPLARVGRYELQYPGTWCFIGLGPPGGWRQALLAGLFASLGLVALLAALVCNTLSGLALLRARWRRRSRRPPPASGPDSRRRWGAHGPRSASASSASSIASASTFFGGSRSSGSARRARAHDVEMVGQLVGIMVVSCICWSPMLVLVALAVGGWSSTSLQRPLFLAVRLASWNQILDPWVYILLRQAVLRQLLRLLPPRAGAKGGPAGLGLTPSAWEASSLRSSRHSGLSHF
Procedure: Using CHO cells (EP1-CHO, EP2-CHO, EP3-Chem1, EP4-CHO and IP-CHO) on which various human prostanoid receptors were forcibly expressed, the agonist activity of the test compound on the various prostanoid receptors was examined using the intracellular calcium concentration for EP1 and EP3, and the intracellular cyclic AMP (hereinafter, abbreviated as cAMP) production amount for EP2, EP4 and IP as indices.
The test compound and control substances (PGE2 and iloprost) were dissolved in dimethyl sulfoxide (DMSO) to prepare a 10 mmol/L solution. The prepared 10 mmol/L solution was thawed at the time of use, serially diluted using DMSO, and diluted with a buffer solution 1 for measurement (Hank's balanced salt solution (Thermofischer scientific) containing 1 w/v% human serum albumin (Sigma), 2 µmol/L indomethacin (Sigma), 2.5 mmol/L probenecid, and 10 mmol/L HEPES-NaOH (pH7.4)) or a buffer solution 2 for measurement (D-PBS (Nacalai Tesque) containing 0.1 w/v% human serum albumin, 2 µmol/L diclofenac (Sigma), and 1 mmol/L 3-isobutyl-1-methylxanthine (Sigma)) to perform experiments.
The intracellular calcium concentration was measured using Calcium 6 Assay Kit (Molecular Devices). On the day before the measurement, EP1-CHO and EP3-Chem 1 were obtained by thawing the frozen cells, suspended using Ham's F-12 medium (Thermofischer scientific) containing inactivated (56°C, 30 min) 9.8 vol% FBS (Thermofischer scientific) and penicillin-streptomycin (Nacalai Tesque), seeded into a 96 well UV plate to 1.0×10^5 cells per well, and static cultured at 37°C in the presence of 5%CO2. On the day of the measurement, the medium was removed, followed by addition of 120 µL of the Calcium indication solution dissolved in the buffer solution 1 for measurement and incubation at room temperature under light-shielding for about 1 hour. After 1 hour incubation, the 96 well UV plates were set in a fluorescence spectrophotometer (FDSS-7000, Hamamatsu Photonics) to measure the intracellular calcium concentration. Thirty microliters of the buffer solution 1 for measurement containing various concentrations of agonists were added, and the mixture was reacted. The intracellular calcium concentration was measured by irradiating the cells with 480 nm excitation light and measuring the fluorescence intensity at 540 nm.

[1] = test system: rat renal ischemia reperfusion (IR) model; experiment: in vivo drug efficacy in rat renal ischemia reperfusion (IR) model; set-up: species or system Crl : CD (SD) rats
Procedure: The effect of the present compound on renal IR damage was evaluated using male rats.
Male Crl : CD (SD) rats aged 3 or 4 weeks were purchased from Charles River Laboratories Japan, and subjected to experiments. Animals were fed ad libitum with FR-2 (Funabashi Farm) at the time of arrival and with solid feed CE-2 (CLEA Japan) for one week before single kidney removal, and watered ad libitum.
After acclimation breeding, the right kidney was removed about 7 days before renal IR treatment. Specifically, the rats were allowed to inhale isoflurane (Mylan) for anesthesia, and administered buprenorphine (Otsuka Pharmaceutical) as an analgesic at 0.01 mg/kg. The right back was incised, the right kidney was removed, and then the incision was sutured.
Renal IR treatment was performed about 7 days after single kidney removal. Specifically, rats were anesthetized by intraperitoneal administration of sodium pentobarbital (Tokyo Chemical Industry) at a dose of 50 mg/kg, and administered buprenorphine as an analgesic at 0.01 mg/kg. The left abdomen was incised, and the renal artery and vein was sandwiched with a clamp (Natsume Seisakusho) to cause ischemia for 35 minutes. During ischemia, the rats were allowed to lie on a heat-retaining plate set at 38°C, and after 35 minutes, the clamp was removed for reperfusion. After visually confirming that blood flow to the kidney was recovered, the incision was sutured. The sham group was a sham-operated group in which neither ischemia nor reperfusion treatment was performed.
Animals were distributed on the day before renal IR treatment such that differences in the mean of the body weight in each group were not biased, and assigned animal numbers.
The compound of Example 7 (test substance) and physiological saline (Otsuka Pharmaceutical) as a vehicle were subcutaneously administered at 5 mL/kg using an injection needle 5 minutes before renal IR treatment. Saline was administered to the sham group in the same test. The administration dose is described in Table 16.
Specifically, the rats were allowed to inhale isoflurane for anesthesia on the day before renal IR treatment, and administered buprenorphine as an analgesic at 0.01 mg/kg. […] The incision was bonded with Dermabond Advanced (Johnson & Johnson). A pump containing a vehicle was also embedded in the sham group in the same test. The administration dose is described in Table 16.
After renal IR treatment, blood was collected through the tail vein on Day1, Day2, and Day3 to obtain serum. In addition, after renal IR treatment, rats were euthanized by exsanguination through the abdominal aorta under isoflurane anesthesia on Day3.
The respective concentrations of serum creatinine (sCre) and blood urea nitrogen (BUN) were measured using an automatic analyzer 7180 (Hitachi High-Tech).

[2] = IR 0.1 mg/kg subcutaneous 5 minutes before renal IR treatment, day 1
[3] = IR 0.1 mg/kg subcutaneous 5 minutes before renal IR treatment, day 2
[4] = IR 0.1 mg/kg subcutaneous 5 minutes before renal IR treatment, day 3
[5] = IR 1.0 mg/kg subcutaneous 5 minutes before renal IR treatment, day 1
[6] = IR 1.0 mg/kg subcutaneous 5 minutes before renal IR treatment, day 2
[7] = IR 1.0 mg/kg subcutaneous 5 minutes before renal IR treatment, day 3
[8] = IR 1.0 µg/kg/min, subcutaneous osmotic pump, day 1
[9] = IR 1.0 µg/kg/min, subcutaneous osmotic pump, day 2
[10] = IR 3.0 µg/kg/min, subcutaneous osmotic pump, day 1
[11] = IR 3.0 µg/kg/min, subcutaneous osmotic pump, day 2

O=C(O)c1ccc2c(c1Cl)O[C@H]1CC[C@H](/C=C/C(O)C3(c4ccccc4)COC3)[C@H]1CC2 (stereo partly drawn) [Example 26-21, (1R,3aS,10aR)-5-chloro-1-[(1E,3ξ)-3-hydroxy-3-(3-phenyl-3-oxetanyl)-1-propen-1-yl]-2,3,3a,9,10,10a-hexahydro-1H-benzo[b]cyclopenta[f]oxepine-6-carboxylic acid]
EC50 (EP1): > 10 µM

Cc1c(C(=O)O)ccc2c1O[C@H]1C[C@@H](O)[C@H](/C=C/CC(C)(O)CCC(C)C)[C@H]1CC2 (stereo partly drawn) [Example 13, (1R,2R,3aS,10aR)-2-hydroxy-1-[(1E,4ξ)-4-hydroxy-4,7-dimethyl-1-octen-1-yl]-5-methyl-2,3,3a,9,10,10a-hexahydro-1H-benzo[b]cyclopenta[f]oxepine-6-carboxylic acid]
EC50 (EP1): > 10 µM

CCCC[C@H](C)C(O)/C=C/[C@H]1OC[C@@H]2Oc3c(ccc(C(=O)O)c3C)CC[C@@H]21 (stereo partly drawn) [Example 41, (1R,3aR,10aR)-1-[(1E,3ξ,4S)-3-hydroxy-4-methyl-1-octen-1-yl]-5-methyl-1,3,3a,9,10,10a-hexahydrofuro[3,4-b][1]benzoxepine-6-carboxylic acid]
EC50 (EP1): > 10 µM

O=C(O)c1ccc2c(c1Cl)O[C@H]1C[C@@H](O)[C@H](/C=C/C(O)C(F)(F)c3c(F)cccc3F)[C@H]1CC2 (stereo partly drawn) [Example 8, (1R,2R,3aS,10aR)-5-chloro-1-[(1E,3ξ)-4-(2,6-difluorophenyl)-4,4-difluoro-3-hydroxy-1-buten-1-yl]-2-hydroxy-2,3,3a,9,10,10a-hexahydro-1H-benzo[b]cyclopenta[f]oxepine-6-carboxylic acid]
EC50 (EP1): 2.7 µM

O=C(O)c1ccc2c(c1)O[C@H]1C[C@@H](O)[C@H](/C=C/[C@@H](O)C3(c4ccccc4)CC3)[C@H]1CC2 [Example 7, (1R,2R,3aS,10aR)-2-hydroxy-1-[(1E,3R)-3-hydroxy-3-(1-phenylcyclopropyl)-1-propen-1-yl]-2,3,3a,9,10,10a-hexahydro-1H-benzo[b]cyclopenta[f]oxepine-6-carboxylic acid]
blood urea nitrogen (BUN) concentration mean [1, 2]: 74.6 | serum creatinine (sCre) concentration mean [1, 2]: 1.08 | blood urea nitrogen (BUN) concentration mean [1, 3]: 58.7 | serum creatinine (sCre) concentration mean [1, 3]: 0.72 | blood urea nitrogen (BUN) concentration mean [1, 4]: 46.3 | serum creatinine (sCre) concentration mean [1, 4]: 0.52 | blood urea nitrogen (BUN) concentration mean [1, 5]: 73.6 | serum creatinine (sCre) concentration mean [1, 5]: 0.99 | blood urea nitrogen (BUN) concentration mean [1, 6]: 53.1 | serum creatinine (sCre) concentration mean [1, 6]: 0.62 | blood urea nitrogen (BUN) concentration mean [1, 7]: 39.7 | serum creatinine (sCre) concentration mean [1, 7]: 0.44

O=C(O)c1ccc2c(c1F)O[C@H]1C[C@@H](F)[C@H](/C=C/C(O)C3(c4ccccc4)COC3)[C@H]1CC2 (stereo partly drawn) [Example 28-2, (1R,2R,3aS,10aR)-2,5-difluoro-1-[(1E,3ξ)-3-hydroxy-3-(3-phenyl-3-oxetanyl)-1-propen-1-yl]-2,3,3a,9,10,10a-hexahydro-1H-benzo[b]cyclopenta[f]oxepine-6-carboxylic acid]
EC50 (EP1): > 10 µM

C=C(CCOC)C(O)/C=C/[C@H]1CC[C@@H]2Oc3c(ccc(C(=O)O)c3Cl)CC[C@@H]21 (stereo partly drawn) [Example 26-19, (1R,3aS,10aR)-5-chloro-1-[(1E,3ξ)-3-hydroxy-6-methoxy-4-methylene-1-hexen-1-yl]-2,3,3a,9,10,10a-hexahydro-1H-benzo[b]cyclopenta[f]oxepine-6-carboxylic acid]
EC50 (EP1): > 10 µM

O=C(O)c1ccc2c(c1)O[C@H]1C[C@@H](O)[C@H](/C=C/C(O)C3(c4ccc(F)cc4)CCC3)[C@H]1CC2 (stereo partly drawn) [Example 7-13, (1R,2R,3aS,10aR)-1-{(1E,3ξ)-3-[1-(4-fluorophenyl)cyclobutyl]-3-hydroxy-1-propen-1-yl}-2-hydroxy-2,3,3a,9,10,10a-hexahydro-1H-benzo[b]cyclopenta[f]oxepine-6-carboxylic acid]
EC50 (EP1): 6.3 µM

O=C(O)c1ccc2c(c1)O[C@H]1CC[C@H](/C=C/C(O)C3(c4ccccc4F)CCC3)[C@H]1CC2 (stereo partly drawn) [Example 26-9, (1R,3aS,10aR)-1-{(1E,3ξ)-3-[1-(2-fluorophenyl)cyclobutyl]-3-hydroxy-1-propen-1-yl}-2,3,3a,9,10,10a-hexahydro-1H-benzo[b]cyclopenta[f]oxepine-6-carboxylic acid]
EC50 (EP1): > 10 µM

CCCC[C@H](CC)C(O)/C=C/[C@H]1CC[C@@H]2Oc3c(ccc(C(=O)O)c3Cl)CC[C@@H]21 (stereo partly drawn) [Example 26-20, (1R,3aS,10aR)-5-chloro-1-[(1E,3ξ,4S)-4-ethyl-3-hydroxy-1-octen-1-yl]-2,3,3a,9,10,10a-hexahydro-1H-benzo[b]cyclopenta[f]oxepine-6-carboxylic acid]
EC50 (EP1): > 10 µM

O=C(O)c1ccc2c(c1Cl)O[C@H]1CC[C@H](/C=C/C(O)C3(c4ccccc4F)CCC3)[C@H]1CC2 (stereo partly drawn) [Example 26-17, (1R,3aS,10aR)-5-chloro-1-{(1E,3ξ)-3-[1-(2-fluorophenyl)cyclobutyl]-3-hydroxy-1-propen-1-yl}-2,3,3a,9,10,10a-hexahydro-1H-benzo[b]cyclopenta[f]oxepine-6-carboxylic acid]
EC50 (EP1): > 10 µM

Cc1ccccc1C1(C(O)/C=C/[C@@H]2[C@H]3CCc4ccc(C(=O)O)c(F)c4O[C@H]3C[C@H]2O)CC1 (stereo partly drawn) [Example 5-2, (1R,2R,3aS,10aR)-5-fluoro-2-hydroxy-1-{(1E,3ξ)-3-hydroxy-3-[1-(2-methylphenyl)cyclopropyl]-1-propen-1-yl}-2,3,3a,9,10,10a-hexahydro-1H-benzo[b]cyclopenta[f]oxepine-6-carboxylic acid]
blood urea nitrogen (BUN) concentration mean [1, 8]: 75.5 | serum creatinine (sCre) concentration mean [1, 8]: 0.91 | blood urea nitrogen (BUN) concentration mean [1, 9]: 65.3 | serum creatinine (sCre) concentration mean [1, 9]: 0.62 | blood urea nitrogen (BUN) concentration mean [1, 10]: 63.4 | serum creatinine (sCre) concentration mean [1, 10]: 0.79 | blood urea nitrogen (BUN) concentration mean [1, 11]: 54.9 | serum creatinine (sCre) concentration mean [1, 11]: 0.50

C[C@@H](c1ccc(F)cc1F)[C@H](O)/C=C/[C@@H]1[C@H]2CCc3ccc(C(=O)O)c(F)c3O[C@H]2C[C@H]1O [Example 1, (1R,2R,3aS,10aR)-1-[(1E,3R,4S)-4-(2,4-difluorophenyl)-3-hydroxy-1-penten-1-yl]-5-fluoro-2-hydroxy-2,3,3a,9,10,10a-hexahydro-1H-benzo[b]cyclopenta[f]oxepine-6-carboxylic acid]
EC50 (EP1): 3.5 µM
